We go through 15 compounds from patent US11760722B2 (priority 2022, dated 2023).

Where two headings read alike, the source gives them in different places.

As usually defined, the EC50 is the concentration giving half of the maximal effect.

Experiment [1] deals with human coronavirus (HCoV) 229E. Put plainly: microbe, parasite or virus in culture. Particulars: MRCS cells, HCoV 229E, 3 days, CellTiter Glo, read-out: 229E CPE EC50. The format is cell-based, human coronavirus 229E. Background: Cellular ATP, detected with luciferase, serves as a proxy for viable cell number.
Experimental: Test compounds were provided by the sponsor. Reference compound remdesivir was provided by WuXi AppTec. Compounds were assayed at 8 concentrations (to be defined by sponsor), in duplicate wells.
MRCS cells were obtained from the ATCC, and maintained in the Minimum Essential Medium supplemented with 10% FBS, 1% L-glutamine, 1% NEAA and 1% penicillin-streptomycin. Minimum Essential Medium supplemented with 5% FBS, 1% L-glutamine, 1% NEAA and 1% penicillin-streptomycin was used as the assay medium.
Cells were seeded in 96 well plates, in 100 μl per well of assay medium, and cultured at 37° C. and 5% CO2 overnight. Next day, test compound was diluted with assay medium and then added into the cells, 50 μl per well. Then 50 μl per well of assay medium diluted virus was added. The final volume of the cell culture was 200 μl per well. […] The CPE were measured by CellTiter Glo following the manufacturer's manual. The antiviral activity of compounds was calculated based on the protection of the virus-induced CPE at each concentration normalized by the virus control.
EC50 and CC50 values were calculated using the GraphPad Prism software using the nonlinear regression model of log(inhibitor) vs. response—Variable slope (four parameters).
For a further experiment, the system named is SARS-CoV-2 replicon. The experiment in a line: microbe, parasite or virus in culture. In kind it is cell-based. Particulars: read-out: Replicon EC50. (A replicon is a self-replicating genome or part of one, used to study replication in cells.)
Setting [2] is: unidentified human coronavirus, 72 h.
[3] abbreviates: Severe acute respiratory syndrome coronavirus 2, Huh-7, 24 h.

In the case of `CC(C)(C)[C@H](NC(=O)CC#N)C(=O)N1C[C@H]2[C@@H]([C@H]1C(=O)N[C@H](C#N)C[C@@H]1CCNC1=O)C2(C)C` [Compound 33], the EC50 in experiment [1] was determined as 18000 nM; in experiment [1] (setting [2]) it was 17800 nM. For the compound `CNC(=S)N[C@H](C(=O)N1C[C@H]2[C@@H]([C@H]1C(=O)N[C@H](C#N)C[C@@H]1CCNC1=O)C2(C)C)C(C)(C)C` [Compound 35], in experiment [1] (setting [2]), the EC50 was found to be 4960 nM. Take `CCOc1ccccc1S(=O)(=O)N[C@H](C(=O)N1C[C@H]2[C@@H]([C@H]1C(=O)N[C@H](C#N)C[C@@H]1CCNC1=O)C2(C)C)C(C)(C)C` [Compound 143]: the EC50 turned out to be 65 nM in the experiment with SARS-CoV-2 replicon (setting [3]) and 130 nM in the experiment with SARS-CoV-2 replicon. Take `CC(C)(C)[C@H](NC(=O)C(F)(F)OCC(F)(F)F)C(=O)N1C[C@H]2[C@@H]([C@H]1C(=O)N[C@H](C#N)C[C@@H]1CCNC1=O)C2(C)C` [Compound 144]: the EC50 in the experiment with SARS-CoV-2 replicon (setting [3]) is 110 nM; with SARS-CoV-2 replicon, 180 nM.

As to `CC(C)(C)[C@H](NC(=O)c1cccc(S(F)(F)(F)(F)F)c1)C(=O)N1C[C@H]2[C@@H]([C@H]1C(=O)N[C@H](C#N)C[C@@H]1CCNC1=O)C2(C)C` [Compound 145], the EC50 in the experiment with SARS-CoV-2 replicon (setting [3]) came to 3960 nM; in the experiment on SARS-CoV-2 replicon, 4000 nM.

Regarding `CC(C)(C)[C@H](NC(=O)C(F)(F)C(F)(F)C(F)(F)C(F)(F)F)C(=O)N1C[C@H]2[C@@H]([C@H]1C(=O)N[C@H](C#N)C[C@@H]1CCNC1=O)C2(C)C` [Compound 146], the EC50 in the experiment with SARS-CoV-2 replicon (setting [3]) amounted to 80 nM; with SARS-CoV-2 replicon, 85 nM. With `CC(C)(C)[C@H](NC(=O)c1ccc(S(F)(F)(F)(F)F)cc1)C(=O)N1C[C@H]2[C@@H]([C@H]1C(=O)N[C@H](C#N)C[C@@H]1CCNC1=O)C2(C)C` [Compound 147], the EC50 in the experiment on SARS-CoV-2 replicon (setting [3]) is > 10000 nM. In the case of `Cc1c(S(=O)(=O)N[C@H](C(=O)N2C[C@H]3[C@@H]([C@H]2C(=O)N[C@H](C#N)C[C@@H]2CCNC2=O)C3(C)C)C(C)(C)C)sc2ccc(F)cc12` [Compound 148], the EC50 in the experiment with SARS-CoV-2 replicon (setting [3]) came to 16 nM. On the same count and under the same terms, under `CC(C)(C)[C@H](NC(=O)CC(C(F)(F)F)C(F)(F)F)C(=O)N1C[C@H]2[C@@H]([C@H]1C(=O)N[C@H](C#N)C[C@@H]1CCNC1=O)C2(C)C` [Compound 149] stands 240 nM; under `CN([C@H](C(=O)N1C[C@H]2[C@@H]([C@H]1C(=O)N[C@H](C#N)C[C@@H]1CCNC1=O)C2(C)C)C(C)(C)C)S(=O)(=O)c1ccc2ccccc2c1` [Compound 150], 2910 nM. As to `Cc1cc(C)c(S(=O)(=O)N[C@H](C(=O)N2C[C@H]3[C@@H]([C@H]2C(=O)N[C@H](C#N)C[C@@H]2CCNC2=O)C3(C)C)C(C)(C)C)c(C)c1` [Compound 152], in the experiment on SARS-CoV-2 replicon (setting [3]), the EC50 came out at 65 nM.

Regarding `CCN([C@H](C(=O)N1C[C@H]2[C@@H]([C@H]1C(=O)N[C@H](C#N)C[C@@H]1CCNC1=O)C2(C)C)C(C)(C)C)S(=O)(=O)c1ccc(OC)cc1` [Compound 153], the EC50 in the experiment with SARS-CoV-2 replicon (setting [3]) worked out at 2110 nM.

As to `CN([C@H](C(=O)N1C[C@H]2[C@@H]([C@H]1C(=O)N[C@H](C#N)C[C@@H]1CCNC1=O)C2(C)C)C(C)(C)C)S(=O)(=O)c1ccc(Cl)s1` [Compound 155], the EC50 in the experiment with SARS-CoV-2 replicon (setting [3]) was > 10000 nM. In the case of `CN([C@H](C(=O)N1C[C@H]2[C@@H]([C@H]1C(=O)N[C@H](C#N)C[C@@H]1CCNC1=O)C2(C)C)C(C)(C)C)S(=O)(=O)c1cccc2ccccc12` [Compound 156], the EC50 with SARS-CoV-2 replicon (setting [3]) amounted to 1400 nM. On to `CCCc1ccc(S(=O)(=O)N[C@H](C(=O)N2C[C@H]3[C@@H]([C@H]2C(=O)N[C@H](C#N)C[C@@H]2CCNC2=O)C3(C)C)C(C)(C)C)s1` [Compound 171], for which the half-maximal effective concentration (EC50) with SARS-CoV-2 replicon (setting [3]) was determined as 29 nM.
